From patent publication US20240116985A1, “STAPLED PEPTIDES AND METHODS THEREOF” (priority 2020, published 2024)
Where two headings read alike, the source gives them in different places.

Tests used:
[1] = biological target: T1, beta-catenin/TCF4 engagement (Homo sapiens, UniProt P35222); assay: Nano-BRET target engagement assay (B-cat-Halo & TCF4-Luc in HEK293 cells); type: cell-based; details: read-out: NanoBRET Abs IC50
T1 construct: expressed in transfected cells; host or cells: HEK293
T1 sequence (P35222 1-781): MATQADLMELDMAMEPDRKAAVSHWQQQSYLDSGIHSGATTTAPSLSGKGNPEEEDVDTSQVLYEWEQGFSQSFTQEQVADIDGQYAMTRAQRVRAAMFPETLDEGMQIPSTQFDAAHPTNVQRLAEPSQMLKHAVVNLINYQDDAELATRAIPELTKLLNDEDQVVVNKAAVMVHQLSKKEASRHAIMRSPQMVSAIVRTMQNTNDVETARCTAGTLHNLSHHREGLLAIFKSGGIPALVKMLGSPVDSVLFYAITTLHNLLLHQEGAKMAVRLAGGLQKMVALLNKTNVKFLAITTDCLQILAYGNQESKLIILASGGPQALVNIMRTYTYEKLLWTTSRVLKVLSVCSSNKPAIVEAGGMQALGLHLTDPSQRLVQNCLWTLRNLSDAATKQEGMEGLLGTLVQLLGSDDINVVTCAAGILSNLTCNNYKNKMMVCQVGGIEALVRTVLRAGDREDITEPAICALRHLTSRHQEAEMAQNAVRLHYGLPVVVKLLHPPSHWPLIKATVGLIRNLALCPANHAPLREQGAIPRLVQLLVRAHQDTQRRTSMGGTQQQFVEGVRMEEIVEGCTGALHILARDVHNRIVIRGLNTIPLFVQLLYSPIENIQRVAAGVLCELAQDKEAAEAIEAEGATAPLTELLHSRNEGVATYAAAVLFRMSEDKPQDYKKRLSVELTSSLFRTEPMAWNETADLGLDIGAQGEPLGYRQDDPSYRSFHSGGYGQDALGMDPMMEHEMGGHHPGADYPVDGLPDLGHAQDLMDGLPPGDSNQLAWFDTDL

[2] = biological target: T2, full-length beta-Catenin (Uniprot ID P35222) (Homo sapiens, UniProt P35222); assay: Fluorescence polarization IC50 (beta-catenin / 5FAM-TCF4 10-53 competition); type: binding; details: fluorescence polarization; read-out: beta-Catenin FP IC50
T2 construct: 10 nM full-length beta-Catenin (Uniprot ID P35222)
T2 sequence (P35222 1-781): T1 sequence (P35222 1-781)

SMILES	IC50 ([1]; absolute IC50) [nM]	IC50 [2] [nM]	IC50 [1] [nM]
CC(=O)N1CCC[C@]12CC=CCCCC1(CCCC=CCCCOC(=O)N3CC[C@@](C(=O)N[C@@H](Cc4ccsc4)C(=O)N[C@@H](Cc4csc5ccccc45)C(=O)N[C@@H](CCC(N)=O)C(=O)N[C@H](CO)[C@@H](C)O)(C3)NC(=O)[C@H](CC(C)C)NC(=O)[C@H](Cc3ccccc3)NC(=O)[C@H](C)NC(=O)[C@H](C)NC(=O)[C@H](CN(CC(=O)O)CC(F)(F)F)NC(=O)[C@H](CC(=O)O)NC1=O)NC(=O)[C@H](CC(C)(C)C)NC(=O)[C@H](CC(=O)O)NC2=O (stereo partly drawn) [I-1683, Ac-PL3-Asp-Npg-B5-Asp-TfeGA-Ala-Ala-Phe-Leu-PyrS2-3Thi-BztA-Gln-Thro1]	3700	9	
CC(=O)N1CCC[C@]12CC=CCCCC1(CCCC=CCCCOC(=O)N3CC[C@@](C(=O)N[C@@H](Cc4ccccc4C(F)(F)F)C(=O)N[C@@H](Cc4ccc(Cl)cc4)C(=O)N[C@@H](C)C(N)=O)(C3)NC(=O)[C@H](CC(C)C)NC(=O)[C@H](Cc3ccccc3)NC(=O)[C@H](C)NC(=O)[C@H](CCC(N)=O)NC(=O)[C@H](Cc3cccc(C(=O)O)c3)NC(=O)[C@H](CC(=O)O)NC1=O)NC(=O)[C@H](CC(C)(C)C)NC(=O)[C@H](CC(=O)O)NC2=O (stereo partly drawn) [I-2223, Ac-PL3-Asp-Npg-B5-Asp-3COOHF-Gln-Ala-Phe-Leu-PyrS2-2F3MeF-4C1F-Ala-NH2]	9000	50	
CC(=O)N1CCC[C@]12CC=CCCCC1(CCCC=CCCCOC(=O)N3CC[C@@](C(=O)N[C@@H](Cc4ccsc4)C(=O)N[C@@H](Cc4csc5ccccc45)C(=O)N[C@@H](CCC(N)=O)C(N)=O)(C3)NC(=O)[C@H](CC(C)C)NC(=O)[C@H](Cc3ccccc3)NC(=O)[C@H](C)NC(=O)[C@H](C)NC(=O)[C@H](CN(CC(=O)O)C(=O)CN3CCOCC3)NC(=O)[C@H](CC(=O)O)NC1=O)NC(=O)[C@H](CC(C)(C)C)NC(=O)[C@H](CC(=O)O)NC2=O (stereo partly drawn) [I-2239, Ac-PL3-Asp-Npg-B5-Asp-[MorphAc]GA-Ala-Ala-Phe-Leu-PyrS2-3Thi-BztA-Gln-NH2]	31900	10	
CC(=O)N1CCC[C@]12CC=CCCCC1(CCCC=CCCCOC(=O)N3CC[C@@](C(=O)N[C@@H](Cc4ccsc4)C(=O)N[C@@H](Cc4csc5ccccc45)C(=O)N[C@@H](CC(C)C)C(N)=O)(C3)NC(=O)[C@H](CC(C)C)NC(=O)[C@H](Cc3ccccc3)NC(=O)[C@H](C)NC(=O)[C@H](C)NC(=O)[C@H](CN(CC(=O)O)CC(F)(F)F)NC(=O)[C@H](CC(=O)O)NC1=O)NC(=O)[C@H](CC(C)(C)C)NC(=O)[C@H](CC(=O)O)NC2=O (stereo partly drawn) [I-1747, Ac-PL3-Asp-Npg-B5-Asp-TfeGA-Ala-Ala-Phe-Leu-PyrS2-3Thi-BztA-Leu-NH2]	> 20000	187	
CC(=O)N1CCC[C@]12CC=CCCCC1(CCCC=CCCCOC(=O)N3CC[C@@](C(=O)N[C@@H](Cc4ccccc4C(F)(F)F)C(=O)N[C@@H](Cc4csc5ccccc45)C(=O)N[C@H](C)C(N)=O)(C3)NC(=O)[C@H](CC(C)C)NC(=O)[C@H](Cc3ccccc3)NC(=O)[C@H](C)NC(=O)[C@H](C)NC(=O)[C@H](Cc3cccc(C(=O)O)c3)NC(=O)[C@H](CC(=O)O)NC1=O)NC(=O)[C@H](CC(C)(C)C)NC(=O)[C@H](CC(=O)O)NC2=O (stereo partly drawn) [I-2091, Ac-PL3-Asp-Npg-B5-Asp-3COOHF-Ala-Ala-Phe-Leu-PyrS2-2F3MeF-BztA-dAla-NH2]		49	6200
CC(=O)N1CCC[C@]12CC=CCCCC1(CCCC=CCCCOC(=O)N3CC[C@@](C(=O)N[C@@H](Cc4ccccc4Cl)C(=O)N[C@@H](Cc4csc5ccccc45)C(=O)N[C@@H](CC(N)=O)C(N)=O)(C3)NC(=O)[C@H](C)NC(=O)[C@H](Cc3ccccc3)NC(=O)[C@H](C)NC(=O)[C@H](C)NC(=O)[C@H](Cc3cccc(C(=O)O)c3)NC(=O)[C@H](CC(=O)O)NC1=O)NC(=O)[C@H](CC(C)(C)C)NC(=O)[C@H](CC(=O)O)NC2=O (stereo partly drawn) [I-2035, Ac-PL3-Asp-Npg-B5-Asp-3COOHF-Ala-Ala-Phe-Ala-PyrS2-2C1F-BztA-Asn-NH2]		16	14500
CC(=O)N1CCC[C@]12CC=CCCCC1(CCCC=CCCCOC(=O)N3CC[C@@](C(=O)N[C@@H](Cc4ccccc4)C(=O)N[C@@H](Cc4csc5ccccc45)C(=O)N[C@@H](C)C(N)=O)(C3)NC(=O)[C@H](CC(N)=O)NC(=O)[C@H](Cc3ccccc3)NC(=O)[C@H](C)NC(=O)[C@H](CCCCNC(C)C)NC(=O)[C@H](CCC(N)=O)NC(=O)[C@H](CC(=O)O)NC1=O)NC(=O)[C@H](CC1CCCCC1)NC(=O)[C@H](CC(N)=O)NC2=O (stereo partly drawn) [I-2065, Ac-PL3-Asn-Cha-B5-Asp-Gln-iPrLys-Ala-Phe-Asn-PyrS2-Phe-BztA-Ala-NH2]		144	> 20000
CC(=O)N1CCC[C@]12CC=CCCCC1(CCCC=CCCCOC(=O)N3CC[C@@](C(=O)N[C@@H](Cc4ccsc4)C(=O)N[C@@H](Cc4csc5ccccc45)C(=O)N[C@@H](CCC(N)=O)C(N)=O)(C3)NC(=O)[C@H](CCC(=O)N3CCN(CC(F)(F)F)CC3)NC(=O)[C@H](Cc3ccccc3)NC(=O)[C@H](C)NC(=O)[C@H](C)NC(=O)[C@H](CN(CC(=O)O)CC(F)(F)F)NC(=O)[C@H](CC(=O)O)NC1=O)NC(=O)[C@H](CC(C)(C)C)NC(=O)[C@H](CC(=O)O)NC2=O (stereo partly drawn) [I-1935, Ac-PL3-Asp-Npg-B5-Asp-TfeGA-Ala-Ala-Phe-[TfePpz]GlnR-PyrS2-3Thi-BztA-Gln-NH2]		9	7100
CC(=O)N1CCC[C@]12CC=CCCCC1(CCCC=CCCCOC(=O)N3CC[C@@](C(=O)N[C@@H](Cc4ccccc4Cl)C(=O)N[C@@H](Cc4csc5ccccc45)C(=O)N[C@@H](CO)C(N)=O)(C3)NC(=O)[C@H](CC(C)C)NC(=O)[C@H](Cc3ccccc3)NC(=O)[C@H](C)NC(=O)[C@H](C)NC(=O)[C@H](Cc3cc(C(=O)O)cc(C(F)(F)F)c3)NC(=O)[C@H](CC(=O)O)NC1=O)NC(=O)[C@H](CC(C)(C)C)NC(=O)[C@H](CC(=O)O)NC2=O (stereo partly drawn) [I-2210, Ac-PL3-Asp-Npg-B5-Asp-5F3Me3COOHF-Ala-Ala-Phe-Leu-PyrS2-2C1F-BztA-Ser-NH2]	12400	128	
CC(=O)N1CCC[C@]12CC=CCCCC1(CCCC=CCCCOC(=O)N3CC[C@@](C(=O)N[C@@H](Cc4ccsc4)C(=O)N[C@@H](Cc4csc5ccccc45)C(=O)N[C@@H](CC(N)=O)C(=O)N[C@@H](C)C(=O)NC(C)(C)C(=O)N[C@@H](C)C(=O)NC(C)(C)C(=O)N[C@@H](C)C(=O)NC(C)(C)C(=O)N[C@@H](C)C(N)=O)(C3)NC(=O)[C@H](CC(C)C)NC(=O)[C@H](Cc3ccccc3)NC(=O)[C@H](C)NC(=O)[C@H](C)NC(=O)[C@H](Cc3cccc(C(=O)O)c3)NC(=O)[C@H](CC(=O)O)NC1=O)NC(=O)[C@H](CC(C)(C)C)NC(=O)[C@H](CC(=O)O)NC2=O (stereo partly drawn) [I-2273, Ac-PL3-Asp-Npg-B5-Asp-3COOHF-Ala-Ala-Phe-Leu-PyrS2-3Thi-BztA-Asn-Ala-Aib-Ala-Aib-Ala-Aib-Ala-NH2]	6200	107	
CC(=O)N1CCC[C@]12CC=CCCCC1(CCCC=CCCCOC(=O)N3CC[C@@](C(=O)N[C@@H](Cc4ccsc4)C(=O)N[C@@H](Cc4csc5ccccc45)C(=O)N[C@@H](CCC(N)=O)C(N)=O)(C3)NC(=O)[C@H](CC(C)C)NC(=O)[C@H](Cc3ccccc3)NC(=O)[C@H](C)NC(=O)[C@H](C)NC(=O)[C@H](CC(=O)O)NC(=O)[C@H](CC(=O)O)NC1=O)NC(=O)[C@H](CC(C)C)NC(=O)[C@H](CC(=O)O)NC2=O (stereo partly drawn) [I-1399, Ac-PL3-Asp-Leu-B5-Asp-Asp-Ala-Ala-Phe-Leu-PyrS2-3Thi-BztA-Gln-NH2]	17400	13	
CC(=O)N1CCC[C@]12CC=CCCCC1(CCCC=CCCCOC(=O)N3CC[C@@](C(=O)N[C@@H](Cc4ccsc4)C(=O)N[C@@H](Cc4csc5ccccc45)C(=O)N[C@@H](CCC(N)=O)C(N)=O)(C3)NC(=O)[C@H](CC(C)C)NC(=O)[C@H](Cc3ccccc3)NC(=O)[C@H](C)NC(=O)[C@H](C)NC(=O)[C@H](CCn3cc(-c4ccccc4C(=O)O)nn3)NC(=O)[C@H](CC(=O)O)NC1=O)NC(=O)[C@H](CC(C)(C)C)NC(=O)[C@H](CC(=O)O)NC2=O (stereo partly drawn) [I-2081, Ac-PL3-Asp-Npg-B5-Asp-[2COOHPh]TriAzDab-Ala-Ala-Phe-Leu-PyrS2-3Thi-BztA-Gln-NH2]		13	11600
COC(=O)C[C@@H]1NC(=O)[C@]2(CC=CCCCC3(CCCC=CCCCOC(=O)N4CC[C@@](C(=O)N[C@@H](Cc5ccsc5)C(=O)N[C@@H](Cc5csc6ccccc56)C(=O)N[C@@H](CCC(N)=O)C(N)=O)(C4)NC(=O)[C@H](CC(C)C)NC(=O)[C@H](Cc4ccccc4)NC(=O)[C@H](C)NC(=O)[C@H](C)NC(=O)[C@H](CC(=O)O)NC(=O)[C@H](CC(=O)O)NC3=O)NC(=O)[C@H](CC(C)(C)C)NC1=O)CCCN2C(C)=O (stereo partly drawn) [I-2359, Ac-PL3-[Me]AspE-Npg-B5-Asp-Asp-Ala-Ala-Phe-Leu-PyrS2-3Thi-BztA-Gln-NH2]	> 20000	424	
